Source: US8222282B2, “Sulfonate salts of 2-amino-3-carbethoxyamino-6-(4-fluoro-benzylamino)-pyridine” (Teva Pharmaceuticals USA, Inc., priority 2008, dated 2012)

What was measured:
Format in all cases: physicochemical
[1] = Bulk density of flupirtine salts; settings: volume per 100.0 g of sample material
Description: The bulk density was determined as follows: Without increasing its density, sample material (about 4 grams) was introduced into a 10 ml measuring cylinder (±0.2 ml). The volume and the exact weight of the introduced sample material were determined. The bulk density was calculated as volume per 100.0 g of sample material.

[2] = Solubility in demineralised water (photometric); settings: 60 min stirring at 20° C.; for solubility thermodynamic at 60 min: demineralised water
Description: […] Subsequently, an aliquot of the solution was centrifuged at 10,000 rpm and the flupirtine absorption was photometrically determined in the supernatant. The amount of flupirtine in solution was calculated with a response factor (absorption/mg substance).

[3] = Oxidative stability: HPLC of flupirtine salts after storage at room temperature under open air; settings: exposed to air, 30 days at room temperature; in contrast to maleate, gluconate or inorganic salts
[4] = as above; settings: for decrease of area under the peak of the flupirtine signal: 0 to 14 days, room temperature, open air; for Flupirtine signal after 14 days (area under the peak in, %): HPLC after 14 days of storage at room temperature under open air; for Flupirtine signal after 0 days (area under the peak in, %): HPLC after isolation and drying
Description: HPLC Method [table] HPLC analysis was performed after isolation and drying of flupirtine maleate form A and flupirtine sulfonate salts and repeated after 14 days of storage at room temperature under open air.

[5] = Discolouration measurements, optical comparison with RAL scale of colours; settings: 60° C. and 70° C., alone and in mixture with MCC, lactose or DiCaPhos, dry and 100% rh
Description: Discolouration was measured using optical comparison with a standard: the RAL scale of colours (see list). The colour changes during the experiment were compared to this standard list and the appropriate value was noted. The intensity was increasing on a scale ranging from 1 to 10.
A higher number means more discolouration. The increase in colour intensity is not proportional but qualitative.
The colouration of flupirtine maleate and flupirtine mesilate has been observed at 60° C. and at 70° C. with the substance alone and in mixture with micro crystalline cellulose (MCC), with lactose or with dicalcium phosphate DiCaPhos (CaHPO4). The tests were performed under dry and neat conditions. Neat refers to saturated with moisture, i.e., 100% relative humidity (rh). […] Only with lactose moisture had to be avoided for the mesilate.

| Structure (SMILES) | Bulk density [1] [ml/100 g substance] | solubility thermodynamic at 60 min [2] [µg/mL] | stability towards oxidation and towards discolouration [3] | decrease of area under the peak of the flupirtine signal [4] | Flupirtine signal after 14 days (area under the peak in, %) [4] [%] | Flupirtine signal after 0 days (area under the peak in, %) [4] [%] | Bulk density ([1]; listed as Maleate Form A) [ml/100 g substance] | Solubility [2] [mg/100 ml water] | discolouration compared to maleate [5] |
| --- | --- | --- | --- | --- | --- | --- | --- | --- | --- |
| CCOC(=O)Nc1ccc(NCc2ccc(F)cc2)nc1N.O=S(=O)(O)c1ccccc1 [Flupirtine besilate, 2-amino-3-carbethoxyamino-6-(4-fluoro-benzylamino)-pyridine Besilate] | 358 | 32 | substantially improved stability | less than 0.1% | 96.87 | 96.93 | – | – | – |
| CCOC(=O)Nc1ccc(NCc2ccc(F)cc2)nc1N.Cc1ccc(S(=O)(=O)O)cc1 [Flupirtine tosilate, 2-amino-3-carbethoxyamino-6-(4-fluoro-benzylamino)-pyridine Tosilate] | 420 | – | – | – | – | – | – | – | – |

Next, values leading:

| Bulk density [1] [ml/100 g substance] | solubility thermodynamic at 60 min [2] [µg/mL] | stability towards oxidation and towards discolouration [3] | decrease of area under the peak of the flupirtine signal [4] | Flupirtine signal after 14 days (area under the peak in, %) [4] [%] | Flupirtine signal after 0 days (area under the peak in, %) [4] [%] | Bulk density ([1]; listed as Maleate Form A) [ml/100 g substance] | Solubility [2] [mg/100 ml water] | discolouration compared to maleate [5] | Structure (SMILES) |
| --- | --- | --- | --- | --- | --- | --- | --- | --- | --- |
| 1634 | – | – | – | – | – | – | – | – | CCOC(=O)Nc1ccc(NCc2ccc(F)cc2)nc1N.O=C(O)/C=C\C(=O)O [Maleate Form B, reference compound] |
| – | – | – | 3.11% | 96.18 | 99.27 | 686 | 1.6 | – | CCOC(=O)Nc1ccc(NCc2ccc(F)cc2)nc1N.O=C(O)/C=C\C(=O)O [Flupirtine maleate A, reference compound] |
| 478 | 52 | substantially improved stability | – | 96.81 | 97.69 | – | – | equal or less discolouration | CCOC(=O)Nc1ccc(NCc2ccc(F)cc2)nc1N.CS(=O)(=O)O [Flupirtine mesilate, 2-amino-3-carbethoxyamino-6-(4-fluoro-benzylamino)-pyridine Mesilate] |
